“And” between values parts separate entries of the source, which are not always exact repeats. Identical values can stand only once. Like-named read-outs stand apart in the source and are kept apart here.
Legend:
GLT-1 [1] = assay: GLT-1 expression in mouse cortex; format: in vivo; details: C57BL/6 mice
GLT-1 [2] = assay: GLT-1 expression in mouse hippocampus; format: in vivo; details: C57BL/6J mice
TMEV-induced seizures = details: mice; doses as in Table S14; cited from earlier work
corneal kindled seizures [3] = details: mice, i.p.; from literature ED50/TD50, ref as in Table S11; cited from earlier work
GLT-1 [4] = assay: GLT-1 expression in neuron-glia cultures; format: cell-based, rat; details: 14 DIV neuron-glia cultures, 72 h
Minimal motor impairment = format: in vivo, rats; details: Sprague-Dawley, rat, in vivo, ip
[5] = tested on: minimal motor impairment (ataxia); assay: Minimal motor impairment; format: in vivo, rats; details: i.p.
EAAT3 = details: cited from earlier work
[6] = tested on: hippocampal paroxysmal discharges (HPDs); assay: Intra-hippocampal kainate mouse; format: in vivo; details: male mice, 50 mg/kg i.p., 1 h post-drug, mean ± SEM
[7] = tested on: autonomic, neuromuscular, sensorimotor and behavioral functions; assay: Modified Irwin test in rats; format: in vivo; details: male rats, i.p.
corneal kindled seizures [8] = assay: Corneal kindled mouse model; format: in vivo, mice; details: ip, read-out: ED50, CKM
6 Hz (44 mA) seizures [9] = assay: 6 Hz; format: in vivo, mice; details: Mus musculus, ip, 1 h, read-out: ED50, 6 Hz (44 mA)
[10] = tested on: motor function and coordination; assay: Rotarod test in mice; format: in vivo; details: male mice (C57BL/6J), i.p., PT 0.5 h; 95% CI in parentheses
EAAT1 = details: cited from earlier work
6 Hz (44 mA) seizures [11] = details: mice, i.p.; from literature ED50/TD50, ref as in Table S11; cited from earlier work

Question: For CN(C)CCC=C1c2ccccc2CCc2ccccc21 [amitriptyline, reference compound], which “GLT-1 protein expression in brain lysates (quantitative Western blot)” value (GLT-1 [1]; 10 mg/kg i.p. for 7 days, P < 0.05) is on record?
Answer: significant increase

Question: What about the “GLT-1 signal in the hippocampus (qualitative confocal microscopy)” value (GLT-1 [2]; 10 mg/kg i.p. QD for 7 days) of the same compound?
Answer: strong increase

Question: For CCCC(CCC)C(=O)O [Valproate], which “effect in the TMEV model” value (TMEV-induced seizures) is on record?
Answer: significantly reduced seizure burden

Question: With CCOC(=O)Nc1ccc(NCc2ccc(F)cc2)cc1N [Ezogabine] as the compound, how does the “PI, CKM (reference ASMs)” value (corneal kindled seizures [3]) read?
Answer: 1.5

Question: Which “effect in the TMEV model” value (TMEV-induced seizures) does the source give for COC[C@@H](NC(C)=O)C(=O)NCc1ccccc1 [Lacosamide] here?
Answer: significantly reduced seizure burden

Question: For NC(=O)N1c2ccccc2C=Cc2ccccc21 [Carbamazepine], which “effect in the TMEV model” value (TMEV-induced seizures) is on record?
Answer: ineffective

Question: With C=C(C)[C@@H]1CCC(C)=C[C@H]1c1c(O)cc(CCCCC)cc1O [Cannabidiol] as the compound, how does the “effect in the TMEV model” value (TMEV-induced seizures) read?
Answer: effectively reduced TMEV-induced seizures

Question: For CO/N=C(\C(=O)N[C@@H]1C(=O)N2C(C(=O)O)=C(CSc3nc(=O)c(=O)[nH]n3C)CS[C@H]12)c1csc(N)n1 [ceftriaxone, reference compound], which “GLT-1 protein expression (Western blotting)” value (GLT-1 [4]; 1 mM) is on record?
Answer: significantly increased

Question: With C[C@H](C(=O)NCc1ccccc1)N1C(=O)CCC1=O [(R)-AS-1, (R)-N-benzyl-2-(2,5-dioxopyrrolidin-1-yl)propanamide] as the compound, how does the TD50 at […] (Minimal motor impairment; female) read?
Answer: > 500 mg/kg

Question: And the TD50 at 0.5 h (Minimal motor impairment; male)?
Answer: 254 mg/kg

Question: And the “N/F with adverse effects, TOX (MMI)” value ([5]; female rats, 500 mg/kg, […])?
Answer: 2/8

Question: And the “abnormal gait, animals affected / tested” value ([5]; female rats, 500 mg/kg, […])?
Answer: 3/8

Question: And the “tremors, animals affected / tested” value ([5]; female rats, 500 mg/kg, […])?
Answer: 6/8

Question: And the “slight ataxia, share of rats” value ([5]; female rats, 500 mg/kg, at 0.5 h and 1 h)?
Answer: 12.5%

Question: And the “N/F with adverse effects, TOX (MMI)” value ([5]; male rats, 300 mg/kg, 1 h)?
Answer: 1/8

Question: What about the “N/F with adverse effects, TOX (MMI)” value ([5]; male rats, 300 mg/kg, […]) of the same compound?
Answer: 1/8

Question: What about the “interaction with EAAT3” value (EAAT3) of the same compound?
Answer: does not interact

Question: What about the “HPD count as percent of baseline (peak effect)” value [6] of the same compound?
Answer: 52.81 ± 13.45% and ~ 50%

Question: What about the “adverse events at later time points (Irwin test)” value ([7]; 300 mg/kg, 2, 4, and 24 h) of the same compound?
Answer: no adverse events

Question: What about the “staggering, share of rats (Irwin test)” value ([7]; 300 mg/kg, 0.5 h, 1/4) of the same compound?
Answer: 25%

Question: And the “ataxia, share of rats (Irwin test)” value ([7]; 300 mg/kg, 0.5 h, 2/4)?
Answer: 50%

Question: What about the “ataxia, share of rats (Irwin test)” value ([7]; 300 mg/kg, 1 h, 1/4) of the same compound?
Answer: 25%

Question: And the “staggering, share of rats (Irwin test)” value ([7]; 300 mg/kg, 1 h, 2/4)?
Answer: 50%

Question: What about the “anesthesia, share of rats (Irwin test)” value ([7]; 300 mg/kg, […], 2 rats out of 4) of the same compound?
Answer: 50%

Question: And the “tolerability in the Irwin test” value ([7]; doses of 100, 150, and 250 mg/kg, all time points)?
Answer: very well tolerated

Question: What about the ED50 (corneal kindled seizures [8]; 1 h) of the same compound?
Answer: 38.2 mg/kg

Question: What about the ED50 (corneal kindled seizures [8]; […]) of the same compound?
Answer: 40.5 mg/kg

Question: And the ED50 (6 Hz (44 mA) seizures [9])?
Answer: 65.9 mg/kg

Question: What about the “GLT-1 protein expression in brain lysates (quantitative Western blot)” value (GLT-1 [1]; 100 mg/kg i.p. BID for 7 days) of the same compound?
Answer: did not show any alteration

Question: What about the “TD50, rotarod test” value [10] of the same compound?
Answer: 168.2 (117.4–242.0) mg/kg

Question: And the “GLT-1 expression in the hippocampus (qualitative confocal microscopy)” value (GLT-1 [2]; 100 mg/kg i.p. BID for 7 days)?
Answer: did not alter

Question: What about the “GLT-1 protein expression (Western blotting)” value (GLT-1 [4]; 100 nM and 100 μM) of the same compound?
Answer: did not alter

Question: And the “interaction with EAAT1” value (EAAT1)?
Answer: does not interact

Question: For Nc1nnc(-c2cccc(Cl)c2Cl)c(N)n1 [Lamotrigine], which “PI, CKM (reference ASMs)” value (corneal kindled seizures [3]) is on record?
Answer: 1.0

Question: And the “effect in the TMEV model” value (TMEV-induced seizures)?
Answer: ineffective

Question: With CC[C@@H](C(N)=O)N1CCCC1=O [Levetiracetam] as the compound, how does the “effect in the TMEV model” value (TMEV-induced seizures) read?
Answer: significantly reduced seizure burden

Question: With Cc1ccsc1C(=CCCN1CCC[C@@H](C(=O)O)C1)c1sccc1C [Tiagabine] as the compound, how does the “effect in the TMEV model” value (TMEV-induced seizures) read?
Answer: significantly reduced seizure burden

Question: What about the “PI, 6 Hz, 44 mA (reference ASMs)” value (6 Hz (44 mA) seizures [11]) of the same compound?
Answer: 6

— paper PMC11740271 (Annals of neurology, 2024)
